Data reported in patent US20120214862A1, “MODULATION OF FACTOR 7 EXPRESSION” (ISIS Pharmaceuticals, Inc., priority 2009, published 2012).
In the oligonucleotide strings, read from the 5' end, every base follows the letter of its sugar. An asterisk marks phosphorothioate; unmarked linkages are phosphodiester. Other units and linkages are bracketed, terminal groups are in braces. A string of capitals states the bases alone. e = 2'-O-(2-methoxyethyl) (MOE); [5mC] = 5-methylcytosine; d = 2'-deoxy (DNA)

What follows are substances tested on human Factor 7 mRNA (assay: Inhibition of human Factor 7 mRNA by 2-10-2 MOE shortmers in HepB3 cells, electroporation, 1,000 nM). Settings: electroporation, 1,000 nM oligonucleotide, approximately 24 hours, relative to untreated control cells.
Type: cell-based
Outline: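 14-mer 2-10-2 2′-MOE gapmers, full phosphorothioate, 5-methylcytidines, electroporated at 1,000 nM into HepB3 cells (20,000/well). After ~24 h, mRNA quantified by real-time RT-PCR, normalized to RIBOGREEN total RNA; percent inhibition relative to untreated cells.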
For “435807 (antisense e[5mC]*eA*dG*dT*dA*d[5mC]*dT*dT*d[5mC]*d[5mC]*d[5mC]*dA*e[5mC]*eG) [compound 435807]”, the “% inhibition of human Factor 7 mRNA” value was 35%. With “435676 (antisense eG*eA*dT*dT*dT*dT*dG*dT*d[5mC]*dG*dA*dA*eA*e[5mC]) [compound 435676]” the “% inhibition of human Factor 7 mRNA” value was 11%. For “435762 (antisense e[5mC]*eA*dG*dG*dT*dG*dT*dT*dA*dA*dG*dG*eT*eG) [compound 435762]”, the “% inhibition of human Factor 7 mRNA” value was 0%. With “435656 (antisense eA*e[5mC]*dT*dG*d[5mC]*dT*d[5mC]*dA*d[5mC]*dA*dG*d[5mC]*e[5mC]*eG) [compound 435656]” the “% inhibition of human Factor 7 mRNA” value was 58%. “435753 (antisense eA*eA*dG*dA*dG*dT*dG*d[5mC]*dA*dG*d[5mC]*dT*eT*eG) [compound 435753]” was tested, and the “% inhibition of human Factor 7 mRNA” value was 9%. In the case of “435759 (antisense eG*eA*dG*d[5mC]*d[5mC]*dA*d[5mC]*dA*dG*dA*dG*d[5mC]*e[5mC]*eT) [compound 435759]”, the “% inhibition of human Factor 7 mRNA” value is reported as 11%. “435752 (antisense eT*eG*d[5mC]*dA*dG*d[5mC]*dT*dT*dG*d[5mC]*d[5mC]*dA*eG*eG) [compound 435752]” was tested, and the “% inhibition of human Factor 7 mRNA” value was 12%. With “435778 (antisense eG*e[5mC]*dT*dA*d[5mC]*dT*dG*dG*dG*d[5mC]*d[5mC]*dA*e[5mC]*eG) [compound 435778]” the “% inhibition of human Factor 7 mRNA” value was 49%. “435493 (antisense eG*eA*d[5mC]*d[5mC]*d[5mC]*dT*dG*dG*dT*dG*dT*dA*e[5mC]*eA) [compound 435493]” was tested, and the “% inhibition of human Factor 7 mRNA” value was 58%. With “435742 (antisense eA*eT*dG*dT*dG*dA*dG*dG*dG*dT*dT*d[5mC]*eA*eT) [compound 435742]” the “% inhibition of human Factor 7 mRNA” value was 11%. In the case of “435733 (antisense e[5mC]*eT*dG*dA*dA*dT*dT*dG*dT*d[5mC]*dT*dG*eA*eA) [compound 435733]”, the “% inhibition of human Factor 7 mRNA” value is reported as 5%. With “435833 (antisense eA*eG*dA*d[5mC]*dA*d[5mC]*dT*dT*dG*dA*dG*dA*eG*e[5mC]) [compound 435833]” the “% inhibition of human Factor 7 mRNA” value was 24%. “435811 (antisense eG*eT*dG*dG*dT*d[5mC]*dA*dA*dG*dG*dA*dT*eG*eA) [compound 435811]” was tested, and the “% inhibition of human Factor 7 mRNA” value was 27%. For “435650 (antisense e[5mC]*e[5mC]*dG*dG*d[5mC]*d[5mC]*d[5mC]*dT*d[5mC]*dG*dA*dA*eG*eG) [compound 435650]”, the “% inhibition of human Factor 7 mRNA” value was 6%. For “435491 (antisense e[5mC]*e[5mC]*d[5mC]*dT*dG*dG*dT*dG*dT*dA*d[5mC]*dA*e[5mC]*e[5mC]) [compound 435491]”, the “% inhibition of human Factor 7 mRNA” value was 61%. For “435746 (antisense eA*eT*dT*dG*dA*d[5mC]*dA*dA*dG*dG*dG*d[5mC]*eT*eG) [compound 435746]”, the “% inhibition of human Factor 7 mRNA” value was 32%. In the case of “435846 (antisense eT*eG*dG*dA*dG*dA*dG*dA*d[5mC]*d[5mC]*dA*dA*eT*eG) [compound 435846]”, the “% inhibition of human Factor 7 mRNA” value is reported as 7%. For “435719 (antisense e[5mC]*eA*dG*d[5mC]*d[5mC]*dT*dT*dG*dG*d[5mC]*dT*dT*eT*e[5mC]) [compound 435719]”, the “% inhibition of human Factor 7 mRNA” value was 50%. With “435773 (antisense e[5mC]*eA*dG*dG*dG*dA*dA*d[5mC]*dA*d[5mC]*d[5mC]*d[5mC]*eT*e[5mC]) [compound 435773]” the “% inhibition of human Factor 7 mRNA” value was 57%. With “435812 (antisense eG*e[5mC]*dT*dG*dA*dG*d[5mC]*dA*dG*dA*dG*dA*eT*e[5mC]) [compound 435812]” the “% inhibition of human Factor 7 mRNA” value was 35%. For “435757 (antisense eT*eG*d[5mC]*d[5mC]*dT*dG*dA*dG*dT*dG*d[5mC]*d[5mC]*e[5mC]*e[5mC]) [compound 435757]”, the “% inhibition of human Factor 7 mRNA” value was 51%. “435850 (antisense e[5mC]*eT*dT*dG*dG*d[5mC]*d[5mC]*dA*dG*dT*dG*dT*eG*eG) [compound 435850]” was tested, and the “% inhibition of human Factor 7 mRNA” value was 15%. “435783 (antisense eA*eA*dA*d[5mC]*d[5mC]*dG*dG*d[5mC]*dA*dT*dG*d[5mC]*eG*e[5mC]) [compound 435783]” was tested, and the “% inhibition of human Factor 7 mRNA” value was 49%. In the case of “435787 (antisense eG*eA*dG*dT*dG*dT*dG*dA*dG*dG*d[5mC]*dT*eT*e[5mC]) [compound 435787]”, the “% inhibition of human Factor 7 mRNA” value is reported as 34%. For “435808 (antisense e[5mC]*eT*d[5mC]*dT*dG*dG*dA*d[5mC]*dA*d[5mC]*d[5mC]*dG*eG*eG) [compound 435808]”, the “% inhibition of human Factor 7 mRNA” value was 66%. With “435810 (antisense e[5mC]*eT*dG*dA*dG*dG*dG*dA*dA*dT*dG*dT*eT*eG) [compound 435810]” the “% inhibition of human Factor 7 mRNA” value was 1%. For “435647 (antisense eA*eG*dA*dT*dA*dT*dA*dG*dG*dA*d[5mC]*dT*eG*eG) [compound 435647]”, the “% inhibition of human Factor 7 mRNA” value was 0%. In the case of “435655 (antisense eA*e[5mC]*dA*dG*d[5mC]*d[5mC]*dG*d[5mC]*d[5mC]*dG*dT*dT*e[5mC]*eT) [compound 435655]”, the “% inhibition of human Factor 7 mRNA” value is reported as 49%. In the case of “435717 (antisense eT*eG*dA*dG*d[5mC]*dT*dT*dT*dT*dG*d[5mC]*dA*eG*e[5mC]) [compound 435717]”, the “% inhibition of human Factor 7 mRNA” value is reported as 0%. With “435684 (antisense eA*eG*d[5mC]*dA*dG*d[5mC]*dG*d[5mC]*dG*dA*dT*dG*eT*e[5mC]) [compound 435684]” the “% inhibition of human Factor 7 mRNA” value was 56%. For “435492 (antisense eA*e[5mC]*d[5mC]*d[5mC]*dT*dG*dG*dT*dG*dT*dA*d[5mC]*eA*e[5mC]) [compound 435492]”, the “% inhibition of human Factor 7 mRNA” value was 45%. For “435480 (antisense eG*eG*dT*d[5mC]*dA*dT*d[5mC]*dA*dG*d[5mC]*d[5mC]*dG*eG*eG) [compound 435480]”, the “% inhibition of human Factor 7 mRNA” value was 53%. For “435734 (antisense eA*eT*dG*d[5mC]*dT*dT*d[5mC]*dT*dG*dA*dA*dT*eT*eG) [compound 435734]”, the “% inhibition of human Factor 7 mRNA” value was 16%. “435801 (antisense e[5mC]*eG*dG*dT*dT*dG*dG*d[5mC]*d[5mC]*dA*dG*dG*e[5mC]*e[5mC]) [compound 435801]” was tested, and the “% inhibition of human Factor 7 mRNA” value was 38%. With “435671 (antisense eT*e[5mC]*dA*d[5mC]*d[5mC]*dA*dA*d[5mC]*dA*dA*d[5mC]*dA*eG*eG) [compound 435671]” the “% inhibition of human Factor 7 mRNA” value was 28%. For “435665 (antisense eA*eG*dG*dT*dA*dT*dT*dT*dT*dT*d[5mC]*d[5mC]*eA*e[5mC]) [compound 435665]”, the “% inhibition of human Factor 7 mRNA” value was 0%. For “435797 (antisense eA*eA*dT*d[5mC]*dT*dT*dG*dG*d[5mC]*d[5mC]*d[5mC]*d[5mC]*eT*e[5mC]) [compound 435797]”, the “% inhibition of human Factor 7 mRNA” value was 16%. “435770 (antisense e[5mC]*eT*d[5mC]*dT*dG*dA*dG*dA*dG*dG*d[5mC]*d[5mC]*e[5mC]*e[5mC]) [compound 435770]” was tested, and the “% inhibition of human Factor 7 mRNA” value was 81%. For “435836 (antisense e[5mC]*eT*dA*dG*dG*dT*d[5mC]*dT*dG*d[5mC]*dA*dG*eG*eG) [compound 435836]”, the “% inhibition of human Factor 7 mRNA” value was 41%. With “435832 (antisense eT*eG*d[5mC]*dT*d[5mC]*dA*dG*dA*d[5mC]*d[5mC]*dT*dG*eG*e[5mC]) [compound 435832]” the “% inhibition of human Factor 7 mRNA” value was 70%. In the case of “435695 (antisense eG*eA*d[5mC]*dT*dG*d[5mC]*dT*dG*d[5mC]*dA*dG*dG*e[5mC]*eA) [compound 435695]”, the “% inhibition of human Factor 7 mRNA” value is reported as 48%. In the case of “435795 (antisense eA*e[5mC]*dA*d[5mC]*d[5mC]*d[5mC]*dG*dA*dG*dG*dT*dT*e[5mC]*eA) [compound 435795]”, the “% inhibition of human Factor 7 mRNA” value is reported as 66%. “435754 (antisense eT*e[5mC]*dA*dG*d[5mC]*dA*dA*dG*dA*dG*dT*dG*e[5mC]*eA) [compound 435754]” was tested, and the “% inhibition of human Factor 7 mRNA” value was 16%. “435681 (antisense eA*eT*dG*dA*d[5mC]*d[5mC]*dT*dG*d[5mC]*dG*d[5mC]*d[5mC]*eA*e[5mC]) [compound 435681]” was tested, and the “% inhibition of human Factor 7 mRNA” value was 40%. With “435643 (antisense e[5mC]*eT*dT*dG*d[5mC]*dA*dG*dG*dA*dG*d[5mC]*d[5mC]*e[5mC]*e[5mC]) [compound 435643]” the “% inhibition of human Factor 7 mRNA” value was 51%. In the case of “435699 (antisense eG*e[5mC]*d[5mC]*d[5mC]*d[5mC]*dA*dG*d[5mC]*dT*dG*dA*d[5mC]*eG*eA) [compound 435699]”, the “% inhibition of human Factor 7 mRNA” value is reported as 48%. In the case of “435670 (antisense e[5mC]*eA*dA*d[5mC]*dA*dG*dG*dA*d[5mC]*d[5mC]*dT*dG*e[5mC]*e[5mC]) [compound 435670]”, the “% inhibition of human Factor 7 mRNA” value is reported as 47%. In the case of “435729 (antisense eA*e[5mC]*dA*dG*d[5mC]*dA*d[5mC]*dA*d[5mC]*dA*dT*dG*eG*eA) [compound 435729]”, the “% inhibition of human Factor 7 mRNA” value is reported as 30%. For “435639 (antisense eT*e[5mC]*d[5mC]*dA*dG*dA*dA*d[5mC]*dA*dG*d[5mC]*dT*eT*e[5mC]) [compound 435639]”, the “% inhibition of human Factor 7 mRNA” value was 31%. For “435726 (antisense eG*e[5mC]*dA*dA*dT*dG*dA*dA*dG*dG*d[5mC]*dA*eG*eA) [compound 435726]”, the “% inhibition of human Factor 7 mRNA” value was 26%. For “435667 (antisense eA*eA*dT*dT*d[5mC]*dG*dG*d[5mC]*d[5mC]*dT*dT*dG*eG*eG) [compound 435667]”, the “% inhibition of human Factor 7 mRNA” value was 16%.
